Laboratory results taken from patent US20100094026A1, “METHOD OF SCREENING COMPOUND USEFUL IN TREATING ALLERGIC DISEASE” (REVERSE PROTEOMICS RESEARCH INSTITUTE CO., LTD., priority 2005, published 2010).
Structures can show the parent of a compound that is named as a salt.

Target: T1, Standard Human Vimentin (Homo sapiens, UniProt P08670)
T1 construct: purchased PROGEN Biotechnik 62015
Experiment: Measurement of Kd value between Vimentin and Intal with Biacore (SPR)
Format: binding
Settings: SPR on Biacore3000; Intal PEG amine immobilized on CM5 chip; Vimentin 0.29 nM to 4.6 μM infused for 5 min
Protocol: Intal PEG amine synthesized as above was immobilized to Biacore CM5 chip (#BR-1000-14), according to a method described in BIAapplications Handbook (published by Biacore).
Control data was obtained by using a chip to which 2-ethanolamine was immobilized by the same way.
As Vimentin, Standard Human Vimentin (cat. No. 62015) purchased from PROGEN Biotechnik was subjected to buffer exchange by Running buffer(0.25 M Sucrose, 25 mM Tris-HCl pH7.5, 0.3 mM sodium N,N-diethyldithiocarbamate, 25 mM urea, 1 mM calcium chloride) and used to measure Kd.
The measurement of Kd was performed by SPR (surface plasmon resonance) spectrum measurement on Biacore3000 (Biacore). The above-mentioned Running buffer was run through the Intal-immobilized CM5 chip prepared by the above-mentioned procedure at 20 μl per min. Thereto, each sample which was prepared by gradually diluting the Vimentin prepared by the above-mentioned procedure (0.29 nM to 4.6 μM) was infused for 5 min., and the obtained SPR spectrum was analyzed by BIAevaluation software Ver.

T1 sequence (P08670 whole entry): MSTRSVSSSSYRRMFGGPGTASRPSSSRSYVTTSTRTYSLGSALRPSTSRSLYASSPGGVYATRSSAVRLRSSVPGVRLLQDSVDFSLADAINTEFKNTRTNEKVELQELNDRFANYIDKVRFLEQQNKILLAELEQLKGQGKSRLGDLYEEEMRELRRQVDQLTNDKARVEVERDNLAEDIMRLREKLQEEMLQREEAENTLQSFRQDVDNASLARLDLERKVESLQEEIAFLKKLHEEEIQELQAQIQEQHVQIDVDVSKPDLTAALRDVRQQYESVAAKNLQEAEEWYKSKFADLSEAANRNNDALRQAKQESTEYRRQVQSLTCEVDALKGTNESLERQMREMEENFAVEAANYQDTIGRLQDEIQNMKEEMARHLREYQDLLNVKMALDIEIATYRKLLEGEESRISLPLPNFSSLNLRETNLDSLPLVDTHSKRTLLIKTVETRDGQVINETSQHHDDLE

- Kd: 56 nM
SMILES: O=C(O)c1cc(=O)c2c(OCC(O)COc3cccc4oc(C(=O)O)cc(=O)c34)cccc2o1 [Intal, disodium salt of 1,3-bis(2-carboxychromon-5-yloxy)-2-hydroxypropane]
